# Test results from patent publication US7026137B2, “Hepatitis” (Chang Gung University, priority 2003, dated 2006).
# How the values were obtained:
# hepatitis C virus (HCV) = assay: HCV replication (HCV-RNA level by RT-PCR) in human liver slices from hepatitis C patients; format: cell-based; settings: for suppression of HCV replication in liver slices: 3 days
# Protocol: Liver slices were prepared from liver tissues of the patients. To obtain the livers tissues, biopsy was performed using Bard Biopty-Cut biopsy needles (C. R. Bard, Inc. Covington, Ga.) with a diameter of 1.2 mm (18 gauge). Two equal-sized slices, 1 mm in thickness, were separated from each tissue. The remaining portion (main portion) of each tissue was subjected to pathological examination. The liver slices were incubated in a 24-well culture plate containing 2 ml of minimal essential medium-20% fetal bovine serum and fed with fresh medium daily.
# To evaluate whether it suppresses the authentic HCV replication in liver slices, the liver slices from patients S10-1 to S10-6 and S00-1 to S00-6 were incubated with 0, 10, and 100 μg/ml of sodium stibogluconate (Wuhan Shengmao Corp., Hubei, China), respectively, 24 hrs after the slices had been cultured in vitro. The slices from patient S10-5 served as a negative control. Three days later (i.e., 96 hr after the slices were cultured), the level of HCV RNA in each slice was measured.
# To detect the HCV-RNA level, one step RT-PCR (not nested) was performed in the manner described in Yeh et al., J. Gen. Virol. 78 (1997) 2761–2770. As a control, β-actin mRNA was measured simultaneously. 20 PCR cycles were performed, in which the amounts of the PCR products had not yet reached to a plateau. The primers used were described in Yeh et al., Oncogene 19 (2000) 5213–5220. […] Methods 65 (1997) 219–226. HCV genotypes were determined using Inno-Lipa HCV II kit (Innogenetics, Zwijndrecht, Belgium).
# The responsiveness of patients to Interferon-alpha, a drug currently being used to treat hepatitis C, was evaluated using liver slices. Liver slices prepared from patients INF-1 to 6 were incubated with 5000 U/ml of interferon-alpha2b (Schering-Plough Corp., Kenilworth, N.J. Slices from patient IFN-6, who was infected by hepatitis B virus, were used as negative controls.
# The slices form patient […] served as negative controls.
# [1] = tested on: HCV in 293EBNA-Sip-L cells; assay: HCV replication in HCV-infected 293EBNA-Sip-L cell line (intracellular HCV-RNA, nested RT-PCR); format: cell-based, hepatitis C virus; settings: day 2 to day 7 after infection, RT-PCR sensitivity <10^2 copy per 10^5 cells, untreated cells 2.31×10^5 per 10^5 cells
# Protocol: To verify the ability of sodium stibogluconate to inhibit HCV replication, a 293EBNA-Sip-L cell line was used. This cell line, permissive for HCV infection and replication, had been established by expressing a cellular factor, Sip-L, in 293EBNA cells (Yeh et al., J. Virol. 75 (2001) 11017–11024). This cell line was maintained in a Dulbecco's modified Eagle's medium containing 10% fetal bovine serum, 250 μg/ml G418, and 150 μg/ml hygromycin B. The cells were infected with HCV. Briefly, cells in a 60-mm-diameter petri dish were incubated with a medium containing 5 μl of HCV-positive serum (10^7 copies of HCV-RNA/ml) for 12 hr. The cells were then incubated in a fresh medium without the serum.
# At the second day after the HCV infection, 293EBNA-Sip-L cells were incubated with media containing 0, 1, 10, and 100 μg/ml of sodium stibogluconate, respectively. At the seventh day, the cells were harvested to determine the intracellular level of HCV-RNA. The cells were trypsinized and washed two times with a fresh medium by centrifugation. The supernatant of the second wash (as a contamination control) and the washed cells were collected in pairs for RNA extraction and nested RT-PCR. A digoxigenin-labeled probe was used for the subsequent Southern blot analysis. The sequences of the primers, the method for generating the probe, and the procedure for RT-PCR were described in Yeh et al., J. Virol. 75 (2001) 11017–11024. An amplified HCV fragment was cloned into pCR2.1-TOPO (Invitrogen, Carlsbad, Calif.) to generate a plasmid, pTOPO-HCV5n, which served as a positive control in Southern blot analysis. As internal controls, the levels of 18s and 28s RNAs were measured.
# HCV replicon = assay: HCV subgenomic RNA replicon system (Ava5); format: cell-based, hepatitis C virus
# [2] = cited from earlier work
# hepatitis C = settings: cited from earlier work
# [3] = tested on: hepatocytes in human liver slices; assay: Viability of hepatocytes in human liver slices (intracellular AST); format: cell-based; settings: 96 hrs after the culture; Group V liver slices; without drug 57%; no significant difference between samples
# Protocol: To determine whether sodium stibogluconate or interferon-alpha 2b protects hepatocytes in human liver slices, the viability of hepatocytes in human liver slices incubated with the drugs was examined. As HCV replication causes the death of hepatocytes, intracellular aspartate aminotransferase (AST) leaks out. The intracellular level of AST therefore positively correlates with the cell viability.
# Liver slices prepared from the patients in Group V were treated with sodium stibogluconate or interferon-alpha 2b in the manner described above. The AST activity in the medium was determined using a standard technique 48, 72, and 96 hrs after the slices had been cultured in vitro. The AST activities in a fresh medium and in the liver slices 96 hrs after incubation were also measured. For this purpose, the slices were homogenized using a mini-homogenizer (Pellet Pestles, Kimble Deltaware, Vineland, N.J). The percentages of AST leaked out to the medium and remained in the liver slices were calculated accordingly.
Compound,"suppression of HCV replication in liver slices (hepatitis C virus (HCV); 10 μg/ml, slices from patient S10-3)","suppression of HCV replication in liver slices (hepatitis C virus (HCV); 10 μg/ml, slices from patients S10-1, S10-2, S10-4 and S10-6)","suppression of HCV replication in liver slices (hepatitis C virus (HCV); 100 μg/ml, slices from patients S00-1, S00-2, S00-3 and S00-5)","suppression of HCV replication in liver slices (hepatitis C virus (HCV); 100 μg/ml, slices from patients S00-4 and S00-6)",intracellular HCV-RNA ([1]; 1 μg/ml),intracellular HCV-RNA ([1]; 10 μg/ml),intracellular HCV-RNA ([1]; 100 μg/ml),suppression of replication of an HCV replicon (HCV replicon),estimated blood concentration immediately after injection ([2]; daily dose of 20 mg/kg as used in treating kala-azar),blood concentration needed for treating kala-azar ([2]; in vivo),"suppression of HCV-RNA levels in liver slices (hepatitis C virus (HCV); 5000 U/ml, slices from patient IFN-2)","suppression of HCV-RNA levels in liver slices (hepatitis C virus (HCV); 5000 U/ml, slices from patient IFN-5)","suppression of HCV-RNA levels in liver slices (hepatitis C virus (HCV); 5000 U/ml, slices from patients IFN-1, 3 and 4)","suppression of HCV-RNA levels in liver slices (hepatitis C virus (HCV); interferon heated to 90° C. for 10 min (inactivated) before incubation, slices from patients iIF-1 to 6)",hepatitis C patients responsive to the treatment (hepatitis C),intracellular AST level [3]
O.O.O.O.O.O.O.O.O.O=C([O-])[C@@H]1[O][Sb]2([O-])([O][Sb]34([OH])[O][C@H]([C@H](O)CO)[C@H]([O]3)[C@H](C(=O)[O-])[O]4)[O][C@H]([C@H](O)CO)[C@@H]1[O]2.[Na+].[Na+].[Na+] [sodium stibogluconate],not,partially suppressed,almost completely suppressed,not,none was detected,none was detected,none was detected,capable of suppressing,about 400 μg/ml,400 µg/mL,–,–,–,–,–,–
interferon-alpha 2b,–,–,–,–,–,–,–,–,–,–,no suppression,Partial suppression,suppressed to undetectable levels,No suppression,about 50%,83%
